Molecular target: T1, DRD4 (Homo sapiens, UniProt P21917)
T1 construct: purchased Promega (in-house HiBiT-GPCR construct library, NanoBRET)
T1 sequence (P21917 1-419): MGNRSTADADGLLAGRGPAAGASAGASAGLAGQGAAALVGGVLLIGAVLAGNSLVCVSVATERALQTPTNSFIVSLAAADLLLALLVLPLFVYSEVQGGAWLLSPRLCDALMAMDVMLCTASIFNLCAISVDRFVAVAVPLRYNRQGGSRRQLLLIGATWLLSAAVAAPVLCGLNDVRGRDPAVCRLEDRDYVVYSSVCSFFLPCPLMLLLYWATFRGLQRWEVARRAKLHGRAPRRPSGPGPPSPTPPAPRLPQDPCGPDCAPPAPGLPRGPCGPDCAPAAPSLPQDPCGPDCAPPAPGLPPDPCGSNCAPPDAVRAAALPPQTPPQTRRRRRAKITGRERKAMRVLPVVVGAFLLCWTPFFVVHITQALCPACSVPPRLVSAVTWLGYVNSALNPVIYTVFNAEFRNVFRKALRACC
Test: NanoBRET screen HiBiT-DRD4 in HEK293
Format: binding
Protocol: Each tracer candidate was screened across the entire library of HiBiT-GPCR constructs using NanoBRET as the detection modality. As depicted in Figure 4A, the specificity of interactions was evaluated through decrease in BRET due to competitive displacement of a bound tracer by excess parental compound. Each tracer was analyzed for binding to each HiBiT-GPCR fusion in the absence and in the presence of competing parental compound. Briefly, HEK293 cells were transfected with HiBiT-GPCR constructs diluted into promoterless DNA to reduce expression and maximize translocation to the cell surface. Each tracer candidate was then screened at concentrations of 1 μM and 0.1 μM across cells expressing these fusions. Cells were treated for 1.5 h with tracer either alone or in the presence of 20 μM competing parental compound (i.e., control). BRET was measured upon addition of purified LgBiT and subsequent complementation with HiBiT genetically fused to a GPCR. The specificity of interactions was assessed through a decrease in BRET signal due to competitive displacement of the bound tracer. To further gauge the robustness of these interactions, the fold response over the control (i.e., BRETtracer/BRETcontrol) was calculated. We chose a 1.5-fold response, which translates to ≥7-fold signal over noise as the minimal threshold required to score an interaction as positive.
HiBiT-GPCR DNA constructs were diluted in 10 mM Tris pH 8 to a final concentration of 0.01 μg/μL, arrayed in 96-well plates and stored at −20 °C. For transfection, HEK293 cells were suspended in Opti-MEM (without phenol red) supplemented with 2% fetal bovine serum (Seradigm) and 100 units/mL penicillin–streptomycin (Gibco) at a final concentration of 220,000 cells/mL and dispensed into white 96-well plates at 90 μL/well. Subsequent transfections and screens were carried using an Agilent Bravo Automated Liquid Handling Platform. First, the 96-well HiBiT DNA arrays were diluted 25-fold in Opti-MEM (without serum or phenol red) to a final concentration of 0.0004 μg/μL and 20 μL of the diluted DNAs were transferred into new 96-well plates. Next, promoterless carrier DNA (1 μg/μL) was diluted 25-fold (0.04 μg/μL) and then dispensed into the diluted arrays at 20 μL/well. Following brief mixing, Viafect transfection reagent (Promega) diluted 16-fold into Opti-MEM was dispensed into the plates at 40 μL/well. After mixing by pipetting, plates were incubated for 10 min on the pipetting station deck. The DNA-transfection reagent complexes were then added to plates containing cells. To facilitate the screen, 10 μL of DNA-transfection reagent complexes were added in duplicates to the top 4 and bottom 4 rows, resulting in two identical 48-well arrays per plate. Plates with transfected cells were incubated for 18–20 h at 37 °C/5% CO2. A screen of each tracer across the entire library using two different concentrations requires duplicate plates of transfected cells. Depending on the number of tracers being screened, transfections can be scaled up using the same ratios. The next day, for each tracer, four 20× screening solutions in tracer dilution buffer (Promega) were prepared: two duplicates at final concentration of 20 μM and two duplicates at a final concentration of 2 μM. […] The four resulting solutions were diluted 4-fold in Opti-MEM without serum or phenol red to generate 5× solutions (5 µM and 0.5 µM tracer +/− 100 μM competing compound). To screen the library, a BioTek MultiFlo FX liquid dispenser was used to dispense 22.5 µL of tracer solution to the top 4 rows and 22.5 µL tracer + competing compound solution to the 4 bottom rows. Plates were briefly mixed on an orbital shaker and incubated for 1.5 h at room temperature. […] Plates were briefly mixed on an orbital shaker and incubated for 15 min to allow complementation.

| Structure (SMILES) | NanoBRET Fold Response (DRD4, tracer 0.1μM) | NanoBRET Fold Response (DRD4, tracer 1μM) | further results |
| --- | --- | --- | --- |
| COc1ccc2c(n1)c(CCNC(C)=O)cn2CCNC(=O)CCc1ccc2n1[B-](F)(F)[N+]1=C(c3ccc[nH]3)C=CC1=C2 [Azamelatonin-1-NB590] | – | – | NanoBRET Fold Response (0.1μM tracer): 0.77; NanoBRET Fold Response (1μM tracer): 1.03 |
| CC(C)N(CC[C@H](c1ccccc1)c1cc(CCNC(=O)c2ccc(CNC(=O)CCc3ccc4n3[B-](F)(F)[N+]3=C(c5ccc[nH]5)C=CC3=C4)cc2)ccc1O)C(C)C [Tolterodine-BZ-NB590] | 0.94 | 1.09 | – |
| O=C(CCc1ccc2n1[B-](F)(F)[N+]1=C(c3ccc[nH]3)C=CC1=C2)NCCOCCOCCNC(=O)OCCOCCN1CCN(C2=Nc3ccccc3Sc3ccccc32)CC1 [Quetiapine-a-2-NB590] | 1.05 | 1.49 | – |
| Cc1cc2c(s1)Nc1ccccc1N=C2N1CCN(CCCNC(=O)CCOCCOCCOCCOCCNC(=O)CCc2ccc3n2[B-](F)(F)[N+]2=C(c4ccc[nH]4)C=CC2=C3)CC1 [Olanzapine-a-2-NB590] | 1.68 | 2.27 | – |
| O=C(CCc1ccc2n1[B-](F)(F)[N+]1=C(c3ccc[nH]3)C=CC1=C2)NCc1ccc(C(=O)NCCOCCOCCNCC(O)COc2cccc3ccccc23)cc1 (centres unmarked) [Propranolol-3-NB590] | – | – | NanoBRET Fold Response (DRD4, 0.1μM): 0.84; NanoBRET Fold Response (DRD4, 1μM): 0.99 |
| N#CN/C(=N\CCNC(=O)c1ccc(N)cc1)NCCCOc1cccc(CN2CCCCC2)c1 [Aminopotentidine (unmodified)] | – | – | NanoBRET Fold Response (DRD4, other tracers/Aminopotentidine (unmodified), 0.1μM): 1.24; NanoBRET Fold Response (DRD4, other tracers/Aminopotentidine (unmodified), 1μM): 1.17 |
| O=C(CCc1ccc2n1[B-](F)(F)[N+]1=C(c3ccc[nH]3)C=CC1=C2)NCc1ccc(C(=O)NCCOCCC(=O)N[C@@H]2CC[C@@]3(O)[C@H]4Cc5ccc(O)c6c5[C@@]3(CCN4CC3CC3)[C@H]2O6)cc1 [Naltrexone-3-NB590] | 0.82 | 1.11 | – |
| CC(C)N(CC[C@H](c1ccccc1)c1cc(CCNC(=O)CCOCCOCCOCCOCCNC(=O)CCc2ccc3n2[B-](F)(F)[N+]2=C(c4ccc[nH]4)C=CC2=C3)ccc1O)C(C)C [Tolterodine-2-NB590] | 0.99 | 0.96 | – |
| Cc1nc2n(c(=O)c1CCN1CCC(c3noc4cc(F)ccc34)CC1)CCCC2OC(=O)NCCOCCOCCOCCOCCNC(=O)CCc1ccc2n1[B-](F)(F)[N+]1=C(c3ccc[nH]3)C=CC1=C2 (centres unmarked) [Risperidone-2-NB590] | 1.55 | 3.40 | – |
| O=C(CCOCCOCCOCCOCCNC(=O)CCc1ccc2n1[B-](F)(F)[N+]1=C(c3ccc[nH]3)C=CC1=C2)NCCCN1CCN(C2=Nc3cc(Cl)ccc3Nc3ccccc32)CC1 [Clozapine-a-2-NB590] | – | – | NanoBRET Fold Response (DRD4, 0.1μM tracer): 3.46; NanoBRET Fold Response (DRD4, 1μM tracer): 3.88 |
| COc1ccc2[nH]c(-c3ccc(CNC(=O)CCOCCOCCOCCOCCNC(=O)CCc4ccc5n4[B-](F)(F)[N+]4=C(c6ccc[nH]6)C=CC4=C5)cc3)c(CCNC(C)=O)c2n1 [AzomelatoninICO9-2-NB590] | – | – | NanoBRET Fold Response (0.1μM tracer): 0.59; NanoBRET Fold Response (1μM tracer): 0.88 |
| COc1ccccc1N1CCN(CCCCN2C(=O)c3ccc(CNC(=O)CCOCCNC(=O)c4ccc(CNC(=O)CCc5ccc6n5[B-](F)(F)[N+]5=C(c7ccc[nH]7)C=CC5=C6)cc4)cc3C2=O)CC1 [NAN-190-3-NB590] | 1.23 | 1.92 | – |
| N#CN=C(NCCCOc1cccc(CN2CCCCC2)c1)NCCNC(=O)CCOCCOCCOCCOCCNC(=O)CCc1ccc2n1[B-](F)(F)[N+]1=C(c3ccc[nH]3)C=CC1=C2 [Aminopotentidine-2-NB590] | 1.00 | 0.98 | – |
| CN(C)CCC=C1c2ccccc2CCc2ccc(C(=O)NCCNC(=O)CCOCCOCCOCCOCCNC(=O)CCc3ccc4n3[B-](F)(F)[N+]3=C(c5ccc[nH]5)C=CC3=C4)cc21 [Amitriptyline-b-2-NB590] | – | – | NanoBRET Fold Response (tracer at 0.1μM, listed as amitriptyline-b-2-NB590): 1.05 |
| COc1ccccc1N1CCN(CCCCN2C(=O)c3ccc(CNC(=O)CCOCCOCCOCCOCCNC(=O)CCc4ccc5n4[B-](F)(F)[N+]4=C(c6ccc[nH]6)C=CC4=C5)cc3C2=O)CC1 [NAN-190-2-NB590] | 1.09 | 1.80 | – |
| O=C(CCOCCOCCOCCOCCNC(=O)CCc1ccc2n1[B-](F)(F)[N+]1=C(c3ccc[nH]3)C=CC1=C2)NCCCN1CCN(C2=Nc3ccccc3Oc3ccc(Cl)cc32)CC1 [Loxapine-a-2-NB590] | 1.57 | 2.56 | – |
| CN(CCC=C1c2ccccc2CCc2ccccc21)C(=O)CCOCCOCCOCCOCCNC(=O)CCc1ccc2n1[B-](F)(F)[N+]1=C(c3ccc[nH]3)C=CC1=C2 [Amitriptyline-e-2-NB590] | – | – | NanoBRET Fold Response (tracer at 1μM): 1.01 |
| CCCn1c(=O)c2[nH]c(-c3ccc(OCC(=O)NCCNC(=O)CCOCCNC(=O)c4ccc(CNC(=O)CCc5ccc6n5[B-](F)(F)[N+]5=C(c7ccc[nH]7)C=CC5=C6)cc4)cc3)nc2n(CCC)c1=O [XAC-3-NB590] | 1.27 | 0.82 | – |
| CN(C)CCC=C1c2ccccc2CCc2ccc(C(=O)NCCNC(=O)CCOCCOCCOCCOCCNC(=O)CCc3ccc4n3[B-](F)(F)[N+]3=C(c5ccc[nH]5)C=CC3=C4)cc21 [Amitriptyline-a-2-NB590] | – | – | NanoBRET Fold Response (tracer at 0.1μM): 1.07; NanoBRET Fold Response (tracer at 1μM): 1.09 |
| CCOC(=O)c1cc(C#N)c(N2CCC(C(=O)NS(=O)(=O)Cc3ccccc3/C=C/C(=O)NCCNC(=O)CCc3ccc4n3[B-](F)(F)[N+]3=C(c5ccc[nH]5)C=CC3=C4)CC2)nc1C [AZD1283-1-NB590] | – | – | NanoBRET Fold Response (DRD4, 0.1μM): 1.05; NanoBRET Fold Response (DRD4, 1μM): 1.13 |

From PMC8151276, “An Integrated Approach toward NanoBRET Tracers for Analysis of GPCR Ligand Engagement” (Molecules, 2021)
